Measured values: patent publication US4703036A, “Peptide-aldehydes, process for the preparation thereof and pharmaceutical compositions containing the same” (Richter Gedeon Vegyeszeti Gyar RT, priority 1984, dated 1987)
Non-standard residues stand in square brackets, D forms with d. Residues, ends and D or L forms follow the SMILES beside them. dNMeaIle = CC[C@H](C)[C@@H](NC)C(=O)O

Assays:
[1] = target: T1, US Standard Human Thrombin (Homo sapiens, UniProt P00734); test: Antithrombin activity: clotting time in the thrombin-fibrinogen system; type: biochemical; settings: for Initial activity I80 (zero day): peptide concentration in the reaction mixture inducing a fivefold prolongation of clotting time compared to the control (15 s)
T1 construct: US Standard Human Thrombin; purchased NIH, Bethesda, Md., USA
Experimental: Antithrombin activities were assayed in a system containing the following components:
(§1) 0.2 ml 0.5 percent bovine fibrinogen in a 0.9 percent solution of sodium chloride,
0.1 ml tris(hydroxymethyl)-amino-methane-hydrochloride-hydrochloric acid buffer (pH=7.2) containing the peptide solution, and
0.1 ml US Standard Human Thrombin (NIH, Bethesda, Md., USA), 10 unit/ml solution.
The clotting time of the peptide-free system is 15 s, measured in the "Schnither-Gross-Coagulometer". The initial activity of the tripeptide-aldehyde sulfates was arbitrarily set up as the mole concentration inducing the fivefold prolongation of clotting time in the system compared to the control (I80 value). The activity of the peptides in the solutions, assayed on the 1st, 3rd and 5th day, was expressed as a percentage of the initial activity (zero day).

[2] = target: T1, US Standard Human Thrombin; test: Change in the antithrombin activity of aqueous solutions of tripeptide-aldehyde sulfates on storage; type: physicochemical; settings: aqueous solution 10 mg/ml; for loss of initial antithrombin activity during the observation period: pH 6.0, 40° C., 5 days; for Activity (%) Day 1 / Activity (%) Day 2 / Activity (%) Day 3: percentage of initial activity, pH = 6.0, stored at 40° C.
Experimental: The transformations proceeding in the solutions were monitored by chromatography and by measuring antithrombin activity. Antithrombin activities were assayed in a system containing the following components: […] 0.1 ml US Standard Human Thrombin (NIH, Bethesda, Md., USA), 10 unit/ml solution. The clotting time of the peptide-free system is 15 s, measured in the "[…]-Gross-Coagulometer". The initial activity of the tripeptide-aldehyde sulfates was arbitrarily set up as the mole concentration inducing the fivefold prolongation of clotting time in the system compared to the control ([…] value).

[3] = Conversion to the tricyclic compound in aqueous solution, monitored by chromatography; type: physicochemical; settings: for irreversible conversion to the tricyclic compound: aqueous solution 10 mg/ml, pH=6.0, 40° C., 5 days, thin-layer chromatography
Experimental: The structure of this compound [1,2,4,5,6,6a-hexahydro-1-benzyl-2-oxo-8-(4'-guanidino)-butyl-pyrrolo[1,2- a]imidazolo[2,1-c]pyrazine] was confirmed by mass spectrometry and NMR spectroscopy. […] 817], they are less suitable for anticoagulant therapy.
During stability testing aqueous solutions of D-phenylalanyl-L-prolyl-L-arginine-aldehyde sulfate as well as of the corresponding N-alkyl derivatives with a concentration of 10 mg/ml (pH=6.0) were stored at 40° C. for 5 days. The transformations proceeding in the solutions were monitored by chromatography and by measuring antithrombin activity.

[4] = target: T2, plasmin (Homo sapiens, UniProt P00747); test: Effect on the plasmin-fibrin reaction: lysis time of fibrin clot; type: biochemical; design: key: **: No measurable lysis time due to clot of rather loose structure; settings: peptide-free system 10 minutes
T2 construct: 0.1 U plasmin dissolved in buffer solution (KABI, Stockholm, Sweden); purchased KABI, Stockholm, Sweden
T2 sequence (P00747 581-810 limits assumed): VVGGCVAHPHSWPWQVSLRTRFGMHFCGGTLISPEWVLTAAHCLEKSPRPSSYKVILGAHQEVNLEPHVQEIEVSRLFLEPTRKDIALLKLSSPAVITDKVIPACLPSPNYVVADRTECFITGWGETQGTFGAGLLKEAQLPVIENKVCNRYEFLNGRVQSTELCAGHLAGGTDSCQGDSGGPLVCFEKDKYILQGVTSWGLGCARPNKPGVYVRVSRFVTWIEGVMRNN
T2 sequence (P00747 97-580 partner limits assumed): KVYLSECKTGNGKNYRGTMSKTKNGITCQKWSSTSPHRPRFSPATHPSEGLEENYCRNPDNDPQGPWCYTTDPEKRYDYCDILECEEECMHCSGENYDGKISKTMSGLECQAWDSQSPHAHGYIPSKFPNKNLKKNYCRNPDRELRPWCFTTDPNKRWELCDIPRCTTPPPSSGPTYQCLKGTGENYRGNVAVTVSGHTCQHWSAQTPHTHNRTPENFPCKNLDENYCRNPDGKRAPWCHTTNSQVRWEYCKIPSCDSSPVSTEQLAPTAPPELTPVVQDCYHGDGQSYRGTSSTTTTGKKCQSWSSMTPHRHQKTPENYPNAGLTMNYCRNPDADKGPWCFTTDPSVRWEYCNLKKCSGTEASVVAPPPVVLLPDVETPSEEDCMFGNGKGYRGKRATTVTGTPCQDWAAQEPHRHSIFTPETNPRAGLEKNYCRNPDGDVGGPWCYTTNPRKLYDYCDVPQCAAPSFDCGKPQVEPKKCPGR
Experimental: as §1
0.1 ml tris(hydroxymethyl)-amino-methane hydrochloride-hydrochloric acid buffer (pH=7.2), containing the peptide,
0.1 ml 0.1 U plasmin dissolved in buffer solution (KABI, Stockholm, Sweden), and
0.1 ml US Standard Human Thrombin (NIH, Bethesda, Md., USA) 10 U/ml solution.
The lysis time of the fibrin gel formed in the peptide-free system is 10 minutes. D-Phenylalanyl-L-prolyl-L-arginine-aldehyde sulfate and the above-mentioned t-butyloxycarbonyl-D-phenylalanyl-L-prolyl-L-arginine-aldehyde hemisulfate were used as reference substances.

[5] = tested on: male New Zealand rabbits; test: In vivo anticoagulant effect: whole blood clotting time and plasma thrombin time; design: species or system rabbit; settings: lowest dose required to attain therapeutic effect; for Lowest effective dose iv: intravenous infusion for 3 hours; for Lowest effective dose po: oral administration
Experimental: The peptides, dissolved in isotonic saline solution, were administered orally or intravenously to male New Zealand rabbits weighing 2 to 3 kg. At intravenous application infusions of 0.5 to 2.0 mg/kg/h were given at a rate of 6 ml/h for 3 hours. At oral administration 20 to 30 mg/kg doses of the peptides were given in volumes of 2 ml. After application blood samples were taken in 30 minute periods from the ear vein of the rabbits and the clotting time of whole blood was assayed in a Thromboelastograph [H. Harter: Zeitschrift fur klinische Medizin 153, 423 (1955)], simultaneously the plasma thrombin time was measured, too [R. T. S. Jim: J. Lab. Clin. Med. 50, 45 (1957)]. The lowest doses required to attain therapeutic effect (M. Verstraete and R. Verwilghen in Drug Treatment, 2nd ed., Ed.: G. S. Avery, Churchill Livingstone, Edinburgh-London, 1980, p. 919) were presented in Table 3, D-phenylalanyl-L-prolyl-L-arginine-aldehyde sulfate served as reference substance.

[6] = target: T1, US Standard Human Thrombin; settings: cool solution (5° C.), prolonged period; Belgian patent specification No. 891,708; cited from earlier work
[7] = Conversion to the tricyclic compound in aqueous solution, monitored by chromatography; type: physicochemical
[8] = target: T1, US Standard Human Thrombin; settings: literature statement; cited from earlier work
[9] = target: T2, plasmin; settings: literature statement; cited from earlier work

Compound | Initial activity I80 (zero day) [1] [µM] | loss of initial antithrombin activity during the observation period [2] | Activity (%) Day 1 [2] [%] | Activity (%) Day 2 [2] [%] | Activity (%) Day 3 [2] [%] | Lysis time of fibrin clot ([4]; peptide content 0.18 μM) [min] | Lysis time of fibrin clot ([4]; peptide content 0.36 μM) | Lysis time of fibrin clot ([4]; peptide content 0.72 μM) | Lowest effective dose iv [5] [mg/kg/h] | Lowest effective dose po [5] [mg/kg] | irreversible conversion to the tricyclic compound ([3]; sulfate) | also measured
1,2,4,5,6,6a-hexahydro-1-benzyl-2-oxo-8-(4'-guanidino)-butyl-pyrrolo[1,2- a]imidazolo[2,1-c]pyrazine [tricyclic compound] |  |  |  |  |  |  |  |  |  |  |  | enzyme inhibitory activity ([1]; conversion product, method not described): devoid of enzyme inhibitory activity
N=C(N)NCCC[C@@H](C=O)NC(=O)[C@@H]1CCCN1C(=O)[C@H](N)Cc1ccccc1.O=S(=O)(O)O [D-Phenylalanyl-L-prolyl-L-arginine-aldehyde sulfate, reference compound] | 0.25 | more than 50% | 100 | 50 | 40 | 10 | ** | no clot formed | 0.5 | 20 |  | irreversible conversion to the tricyclic compound [3]: gradually reduced; stability: retention of initial activity in cool solution [6]: retaining its initial activity; time to practically complete transformation into the tricyclic compound at 37° to 40° C. ([7]; 37° to 40° C.): 10 to 14 days; transformation into the tricyclic compound at 80° to 100° C. ([7]; 80° to 100° C.): within hours
CC(=O)O.N=C(N)NCCC[C@@H](C=O)NC(=O)[C@@H]1CCCN1C(=O)[C@H](N)Cc1ccccc1 [D-phenylalanyl-L-prolyl-L-arginine-aldehyde acetate, reference compound] |  |  |  |  |  |  |  |  |  |  |  | transformation into the corresponding tricyclic compound ([3]; conditions not stated): especially highly susceptible
CN(C)[C@H](Cc1ccccc1)C(=O)N1CCC[C@H]1C(=O)N[C@H](C=O)CCCNC(=N)N.O=S(=O)(O)O [N,N-Dimethyl-D-phenylalanyl-L-prolyl-L-arginine-aldehyde sulfate] |  |  |  |  |  |  |  |  |  | 30 |  | irreversible conversion to the tricyclic compound [3]: no such conversion was detectable
CCN[C@H](Cc1ccccc1)C(=O)N1CCC[C@H]1C(=O)N[C@H](C=O)CCCNC(=N)N.O=S(=O)(O)O [N-Ethyl-D-phenylalanyl-L-prolyl-L-arginine-aldehyde sulfate] | 0.21 | 15 to 20% | 100 | 100 | 85 |  |  |  | 0.5 | 20 | fail to be irreversibly converted | irreversible conversion to the tricyclic compound ([3]; listed as N-ethyl derivative, sulfate): no such conversion was detectable
CC(C)CN[C@H](Cc1ccccc1)C(=O)N1CCC[C@H]1C(=O)N[C@H](C=O)CCCNC(=N)N.O=S(=O)(O)O [N-Isobutyl-D-phenylalanyl-L-prolyl-L-arginine-aldehyde sulfate] | 0.31 | 15 to 20% | 100 | 85 | 80 |  |  |  |  | 20 | fail to be irreversibly converted | irreversible conversion to the tricyclic compound ([3]; listed as N-isobutyl derivative, sulfate): no such conversion was detectable
CC[C@H](C)[C@@H](NC)C(=O)N1CCC[C@H]1C(=O)N[C@H](C=O)CCCNC(=N)N.O=S(=O)(O)O [N-Methyl-D-alloisoleucyl-L-prolyl-L-arginine-aldehyde sulfate] (H-[dNMeaIle]-Pro-Arg-aldehyde) |  |  |  |  |  |  |  |  | 1.0 | 30 |  | 
CN[C@H](Cc1ccccc1)C(=O)N1CCC[C@H]1C(=O)N[C@@H](C=O)CCCNC(=N)N.O=S(=O)(O)O [N-Methyl-D-phenylalanyl-L-prolyl-D-arginine-aldehyde sulfate] | 0.25 |  | 100 | 100 | 100 |  |  |  |  |  |  | 
CN[C@H](Cc1ccccc1)C(=O)N1CCC[C@H]1C(=O)N[C@H](C=O)CCCNC(=N)N.O=S(=O)(O)O [N-Methyl-D-phenylalanyl-L-prolyl-L-arginine-aldehyde sulfate] |  | retained its initial potency |  |  |  | 10 | ** | no clot formed | 0.5 | 20 | fail to be irreversibly converted | irreversible conversion to the tricyclic compound ([3]; listed as N-methyl derivative, sulfate): no such conversion was detectable
t-butyloxycarbonyl-D-phenylalanyl-L-prolyl-L-arginine-aldehyde hemisulfate |  |  |  |  |  | 10 | 20 min | 40 min |  |  |  | inhibition of the thrombin-fibrinogen reaction [8]: inhibit; effect on the plasmin-fibrin reaction [9]: inhibit
